In the supplement of paper PMC11451515:

Legend:
Settings in all cases: 48 h
SEM cells [1] = assay: AUC of viability dose-response curve (% viability x log10 dose units); higher = less sensitive
Summary of the method: (§1)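 Leukemia cells adapted to each medium were seeded at 500 or 1000 cells/well in 1536-well plates and dosed with library compounds in DMSO at 11 threefold doses from 47 μM to 0.79 nM for 48 h at 37°C. CellTiter-Glo One luminescence was normalised per plate to DMSO and cell-free wells, then fitted with a four-parameter log-logistic model over log10 doses. Area under the curve was taken from this fit by the trapezoidal rule, with curves above full viability scaled and curves failing quality control removed.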

NOMO1 [2] = assay: as above
Summary of the method: as §1

P12-Ichikawa [3] = assay: as above
Summary of the method: as §1

SEM cells [4] = assay: cell viability relative to DMSO control; higher = less cytotoxic
Summary of the method: (§2)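 Library compounds in DMSO were pin-dosed in an 11-point threefold series (47 μM to 0.79 nM) onto leukemia cells in 1536-well plates (5 μl). Plates held 500 cells/well of NOMO1 or SEM or 1000 cells/well of P12-Ichikawa, each adapted for at least four passages in each medium. Luminescence was read with CellTiter-Glo One after 48 h at 37°C. Viability means the per-plate percentage relative to DMSO wells, using cell-free wells as background.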

NOMO1 [5] = assay: as above
Summary of the method: as §2

P12-Ichikawa [6] = assay: as above
Summary of the method: as §2

CC(C)=CC[C@@H](O)C/1=C/C(=O)C2=C(O)C=CC(=C2C1=O)O
AUC of viability dose-response curve
Settings	NOMO1 [2]	P12-Ichikawa [3]	SEM cells [1]
HPLM + 10% dialyzed FBS	379	413	449
RPMI 5 mM glucose + 10% FBS	354	415	407
RPMI 5 mM glucose + 10% dialyzed FBS	368	434	431

cell viability [%]
Settings	NOMO1 [5]	P12-Ichikawa [6]	SEM cells [4]
HPLM + 10% dialyzed FBS, 0.000781 µM	91.5	90.8	76.2
HPLM + 10% dialyzed FBS, 0.00234 µM	108	107	90.2
HPLM + 10% dialyzed FBS, 0.00702 µM	95.5	111	89.5
HPLM + 10% dialyzed FBS, 0.0211 µM	100	108	96
HPLM + 10% dialyzed FBS, 0.0632 µM	105	109	98.3
HPLM + 10% dialyzed FBS, 0.19 µM	113	109	97.7
HPLM + 10% dialyzed FBS, 0.569 µM	123	118	93.5
HPLM + 10% dialyzed FBS, 1.71 µM	85.1	111	91.4
HPLM + 10% dialyzed FBS, 5.12 µM	33.5	104	98.7
HPLM + 10% dialyzed FBS, 15.4 µM	25.8	17.1	119
HPLM + 10% dialyzed FBS, 46.1 µM	17	8.56	77.4
RPMI 5 mM glucose + 10% FBS, 0.000781 µM	93.7	93.6	82.4
RPMI 5 mM glucose + 10% FBS, 0.00234 µM	105	113	76.6
RPMI 5 mM glucose + 10% FBS, 0.00702 µM	102	114	79.2
RPMI 5 mM glucose + 10% FBS, 0.0211 µM	102	120	81.9
RPMI 5 mM glucose + 10% FBS, 0.0632 µM	95.7	120	93.2
RPMI 5 mM glucose + 10% FBS, 0.19 µM	96	114	98.3
RPMI 5 mM glucose + 10% FBS, 0.569 µM	108	120	92.3
RPMI 5 mM glucose + 10% FBS, 1.71 µM	52.6	106	105
RPMI 5 mM glucose + 10% FBS, 5.12 µM	17.3	108	86.2
RPMI 5 mM glucose + 10% FBS, 15.4 µM	17.9	22.9	77.8
RPMI 5 mM glucose + 10% FBS, 46.1 µM	12.2	8.56	47.1
RPMI 5 mM glucose + 10% dialyzed FBS, 0.000781 µM	88.2	92.7	72.2
RPMI 5 mM glucose + 10% dialyzed FBS, 0.00234 µM	92.6	106	87.8
RPMI 5 mM glucose + 10% dialyzed FBS, 0.00702 µM	93	108	85.8
RPMI 5 mM glucose + 10% dialyzed FBS, 0.0211 µM	113	108	95.5
RPMI 5 mM glucose + 10% dialyzed FBS, 0.0632 µM	98.1	113	99
RPMI 5 mM glucose + 10% dialyzed FBS, 0.19 µM	109	107	104
RPMI 5 mM glucose + 10% dialyzed FBS, 0.569 µM	107	118	111
RPMI 5 mM glucose + 10% dialyzed FBS, 1.71 µM	70.2	117	117
RPMI 5 mM glucose + 10% dialyzed FBS, 5.12 µM	24.5	113	87.4
RPMI 5 mM glucose + 10% dialyzed FBS, 15.4 µM	15.3	55.2	80.4
RPMI 5 mM glucose + 10% dialyzed FBS, 46.1 µM	21.2	21	21.6

CN1C[C@H]2c3ccccc3Oc3ccc(Cl)cc3[C@@H]2C1
AUC of viability dose-response curve
Settings	NOMO1 [2]	P12-Ichikawa [3]	SEM cells [1]
HPLM + 10% dialyzed FBS	440	436	372
RPMI 5 mM glucose + 10% FBS	410	462	395
RPMI 5 mM glucose + 10% dialyzed FBS	418	410	396

cell viability [%]
Settings	NOMO1 [5]	P12-Ichikawa [6]	SEM cells [4]
HPLM + 10% dialyzed FBS, 0.000781 µM	78.1	88.5	75.4
HPLM + 10% dialyzed FBS, 0.00234 µM	106	86.3	76
HPLM + 10% dialyzed FBS, 0.00702 µM	93.5	83.8	68
HPLM + 10% dialyzed FBS, 0.0211 µM	92.7	90.2	76.3
HPLM + 10% dialyzed FBS, 0.0632 µM	85.6	89.7	80.2
HPLM + 10% dialyzed FBS, 0.19 µM	90	96.8	84
HPLM + 10% dialyzed FBS, 0.569 µM	106	92.5	94.5
HPLM + 10% dialyzed FBS, 1.71 µM	96	96	90
HPLM + 10% dialyzed FBS, 5.12 µM	90.5	91.4	96.3
HPLM + 10% dialyzed FBS, 15.4 µM	93.8	93	85
HPLM + 10% dialyzed FBS, 46.1 µM	82.1	95.8	6.31
RPMI 5 mM glucose + 10% FBS, 0.000781 µM	75.8	96.9	89.6
RPMI 5 mM glucose + 10% FBS, 0.00234 µM	93.6	94.5	80.8
RPMI 5 mM glucose + 10% FBS, 0.00702 µM	88.7	95.6	90.6
RPMI 5 mM glucose + 10% FBS, 0.0211 µM	90.4	97.8	86.7
RPMI 5 mM glucose + 10% FBS, 0.0632 µM	91.3	88.4	71.4
RPMI 5 mM glucose + 10% FBS, 0.19 µM	83.3	95.4	91.7
RPMI 5 mM glucose + 10% FBS, 0.569 µM	80.7	98.2	92.4
RPMI 5 mM glucose + 10% FBS, 1.71 µM	88.2	99	90.6
RPMI 5 mM glucose + 10% FBS, 5.12 µM	80.4	96.7	95.8
RPMI 5 mM glucose + 10% FBS, 15.4 µM	87.3	103	79.3
RPMI 5 mM glucose + 10% FBS, 46.1 µM	85.6	101	5.32
RPMI 5 mM glucose + 10% dialyzed FBS, 0.000781 µM	85.8	87.6	73.5
RPMI 5 mM glucose + 10% dialyzed FBS, 0.00234 µM	86.1	89.7	83.7
RPMI 5 mM glucose + 10% dialyzed FBS, 0.00702 µM	85.4	82.3	76.6
RPMI 5 mM glucose + 10% dialyzed FBS, 0.0211 µM	94.2	87.6	83.3
RPMI 5 mM glucose + 10% dialyzed FBS, 0.0632 µM	87.4	87.5	73.5
RPMI 5 mM glucose + 10% dialyzed FBS, 0.19 µM	95.2	96.6	105
RPMI 5 mM glucose + 10% dialyzed FBS, 0.569 µM	85.2	87	107
RPMI 5 mM glucose + 10% dialyzed FBS, 1.71 µM	83.9	84.5	103
RPMI 5 mM glucose + 10% dialyzed FBS, 5.12 µM	93	80	85.3
RPMI 5 mM glucose + 10% dialyzed FBS, 15.4 µM	82.1	84.3	79.1
RPMI 5 mM glucose + 10% dialyzed FBS, 46.1 µM	85.3	78.1	6.04

CC(=O)N[C@H]1[C@H](O[C@@H]2c3ccc(c(Cl)c3)Oc3cc4cc(c3O[C@@H]3O[C@H](CO)[C@@H](O)[C@H](O)[C@H]3NC(=O)CCCCCCCC(C)C)Oc3ccc(cc3Cl)C[C@H]3NC(=O)[C@H](N)c5ccc(O)c(c5)Oc5cc(O)cc(c5)[C@H](NC3=O)C(=O)N[C@H]4C(=O)N[C@H]3C(=O)N[C@@H]2C(=O)N[C@@H](C(=O)O)c2cc(O)cc(O[C@H]4O[C@H](CO)[C@@H](O)[C@H](O)[C@@H]4O)c2-c2cc3ccc2O)O[C@H](CO)[C@@H](O)[C@@H]1O
AUC of viability dose-response curve
Settings	NOMO1 [2]	P12-Ichikawa [3]	SEM cells [1]
HPLM + 10% dialyzed FBS	469	463	456
RPMI 5 mM glucose + 10% FBS	470	466	464
RPMI 5 mM glucose + 10% dialyzed FBS	448	468	471

Settings	cell viability [%]
NOMO1 [5], RPMI 5 mM glucose + 10% dialyzed FBS, 0.000781 µM	123
NOMO1 [5], RPMI 5 mM glucose + 10% dialyzed FBS, 0.00234 µM	131
NOMO1 [5], RPMI 5 mM glucose + 10% dialyzed FBS, 0.00702 µM	123
NOMO1 [5], RPMI 5 mM glucose + 10% dialyzed FBS, 0.0211 µM	144
NOMO1 [5], RPMI 5 mM glucose + 10% dialyzed FBS, 0.0632 µM	146
NOMO1 [5], RPMI 5 mM glucose + 10% dialyzed FBS, 0.19 µM	151
NOMO1 [5], RPMI 5 mM glucose + 10% dialyzed FBS, 0.569 µM	149
NOMO1 [5], RPMI 5 mM glucose + 10% dialyzed FBS, 1.71 µM	162
NOMO1 [5], RPMI 5 mM glucose + 10% dialyzed FBS, 5.12 µM	157
NOMO1 [5], RPMI 5 mM glucose + 10% dialyzed FBS, 15.4 µM	157
NOMO1 [5], RPMI 5 mM glucose + 10% dialyzed FBS, 46.1 µM	151
SEM cells [4], HPLM + 10% dialyzed FBS, 0.000781 µM	96.3
SEM cells [4], HPLM + 10% dialyzed FBS, 0.00234 µM	106
SEM cells [4], HPLM + 10% dialyzed FBS, 0.00702 µM	106
SEM cells [4], HPLM + 10% dialyzed FBS, 0.0211 µM	123
SEM cells [4], HPLM + 10% dialyzed FBS, 0.0632 µM	127
SEM cells [4], HPLM + 10% dialyzed FBS, 0.19 µM	121
SEM cells [4], HPLM + 10% dialyzed FBS, 0.569 µM	127
SEM cells [4], HPLM + 10% dialyzed FBS, 1.71 µM	140
SEM cells [4], HPLM + 10% dialyzed FBS, 5.12 µM	117
SEM cells [4], HPLM + 10% dialyzed FBS, 15.4 µM	98.6
SEM cells [4], HPLM + 10% dialyzed FBS, 46.1 µM	126
